Entries after “also recorded” stand apart in the source; their conditions may differ.
Legend:
Format in all cases: in vivo, mouse
Str/ort mice [1] = assay: Micro-CT of tibial trabecular and cortical bone in Str/ort mice
Protocol: At 10-13 weeks of age, 21 male Str/ort mice (n=7/group) were assigned randomly to vehicle, hylin-betaine and xantho-betaine groups and were treated intraperitoneally 18 weeks with either vehicle (5% DMSO in 95% peanut oil), 50 mg/kg compound of Example 1 (“hylin-betaine”) in 5% DMSO and 95% peanut oil or 50 mg/kg compound of Example 2 (“xantho-betaine”) in 5% DMSO and 95% peanut oil. Micro-CT scanning and analysis were performed as described previously. Briefly, tibiae from vehicle, hylin-betaine and xantho-betaine treated groups were scanned using the Skyscan 1172 (Skyscan, Kontich, Belgium), with x-ray tube operated at 50 kV and 200 Micro-A, 1600 ms exposure time with a 0.5 mm aluminium filter and a voxel size of micro-m 5. The scanning time for each sample was approximately 2 hours. The slices were then reconstructed using NRecon 1.6.9.4 (Skyscan, Kontich, Belgium). 2D/3D analyses were performed using CTAn 1.15.4.0+ version software (Skyscan, Kontich, Belgium). Additionally, 3D visualization and production of colour-coded images of trabecular, cortical and skull bones were conducted using Avizo 9.0.0 software (FEI, Oregon USA). • a. Trabecular analysis: prior to analysis, Micro-CT images were re-oriented in DataViewer 1.5.0 (Skyscan, Kontich, Belgium), such that the cross-section within the transverse plane was perpendicular to the long axis of the bone. Tibial length was measured in CTAn 1.15.4.0+ software using a straight line measuring tool and the appearance of the trabecular ‘bridge’ connecting the two primary spongiosa bone ‘islands’ was set as reference point for analysis of the metaphyseal trabecular bone adjacent to the epiphyseal growth plate. 5% of the total bone length from this point (towards the diaphysis) was utilised for trabecular analysis of the proximal tibia. The trabecular region of interest was drawn freehand using the selection tool of CTAn, a few voxels away from the endocortical surfaces in order to avoid inclusion of remnants of primary spongiosa associated with cortical bone. The selected trabecular regions of interests were analysed using CTAn BatMan software (Skyscan, Kontich, Belgium) and morphometric parameters were recorded. • b. Whole bone cortical analysis: Whole bone analysis was performed on datasets derived from CT scans using BoneJ (version 1.4.0), an ImageJ plugin. Following segmentation, alignment and removal of fibula from the dataset, a minimum bone threshold was selected using a histogram based method in ImageJ which utilises all pixels in a stack to construct a histogram and was further confirmed using ImageJ “threshold function”. The threshold ranged between 22000-22100 and was applied to all datasets to separate higher density bone from soft tissues and air. This threshold was used in “Slice Geometry” function within BoneJ to calculate bone cross sectional area (CSA), second moment of area around the minor axis (Imin), second moment of area around the major axis (Imax), mean thickness determined by local thickness in two dimensions (Ct.Th), ellipticity and resistance to torsion (J). The most proximal (15%) and the most distal portions (25%) of tibial length were excluded from analysis, as these regions include trabecular bone.

Str/ort mice [2] = assay: Health evaluation of treated Str/ort mice; conditions: 50 mg/kg intraperitoneally, 18 weeks, vs vehicle
Protocol: (§1) At 10-13 weeks of age, 21 male Str/ort mice (n=7/group) were assigned randomly to vehicle, hylin-betaine and xantho-betaine groups and were treated intraperitoneally 18 weeks with either vehicle (5% DMSO in 95% peanut oil), 50 mg/kg compound of Example 1 (“hylin-betaine”) in 5% DMSO and 95% peanut oil or 50 mg/kg compound of Example 2 (“xantho-betaine”) in 5% DMSO and 95% peanut oil.
To assess the health status after hylin-betaine and xantho-betaine treatment, mice were monitored for their health status. The monitoring criteria were body surface temperature, body weight, gait, coat condition, skin tenting for dehydration, hunching, activity, breathing rate and general body condition. Mice were scored blind for each one of these criteria from 1-5 except for body weight and temperature.

Str/ort mice [3] = assay: Gait analysis (treadmill, Digigait) in Str/ort mice
Protocol: as §1
Gait was monitored using a treadmill-based video system (DigigaitTM system) in three treatment groups of mice at three time point, week 1, week 9 and week 18 of treatment. The number of mice was 7, 7 and 5 in groups 1, 2 and 3, respectively.
[…] gait descriptors were used for the analyses. Thirty-four descriptors were obtained directly from the software of the system in the 4 limbs (LF: left front; RF: right front; LR: left rear; RR: right rear). All the others (143) were calculated indexes from gait measurements including swing, stance, brake, propel and stride times, stride length, frequency and coefficient of variation, paw area and paw angle and the variability of those two traits, the coefficient of variation of swing duration mid line distance, and minimum and maximum dAdT. The ratios of times were calculated in the 4 limbs: Brake, Propel, and Swing times relative to Stance and Stride times, Stance/Swing and Stance/Stride. In addition, the following additional indexes were considered:
In order to investigate whether there were differences among groups for each descriptor at the three experimental dates, an ANOVA was performed using data corresponding to each descriptor and date. Bonferroni correction was applied to counteract the problem of multiple comparisons.
A t-test analysis was also performed comparing only two groups at a time. In order to assess whether differences between both groups could be due to differences in gait change regarding the initial condition (at 2014/12/23), two sets of analyses were performed for data at 2015/02/18 and 2015/04/14, respectively by using Logistic Regression Analysis. The model included two independent variables: the initial value for each descriptor and the difference between the corresponding value at 2015/02/18 (or 2015/04/14) and the initial value. Bonferroni correction was also applied.

Str/ort mice [4] = assay: Micro-CT of tibial trabecular and cortical bone in Str/ort mice; conditions: 10-90% of total tibial length, vs vehicle
Str/ort mice [5] = assay: Histology and grading of articular cartilage lesions in Str/ort mice
Protocol: At 10-13 weeks of age, 21 male Str/ort mice (n=7/group) were assigned randomly to vehicle, hylin-betaine and xantho-betaine groups and were treated intraperitoneally 18 weeks with either vehicle (5% DMSO in 95% peanut oil), 50 mg/kg compound of Example 1 (“hylin-betaine”) in 5% DMSO and 95% peanut oil or 50 mg/kg compound of Example 2 (“xantho-betaine”) in 5% DMSO and 95% peanut oil. Dissected right knees were fixed in neutral buffered formalin, decalcified (Immunocal, Quartett, Berlin), wax-embedded and 6 μm coronal sections cut. Multiple sections (five/slide) from 120 μm intervals across the whole joint were stained with Tollidine blue (0.1% in 0.1 M acetate buffer, pH 5.6) and AC lesion severity graded. Sections from right vehicle, hylin-betaine and xantho-betaine treated Str/ort joints were stained with Safranin O. Sections were dewaxed, and AC lesion severity was scored in Str/ort mice by the methods of Chambers et al., (Chambers et al Expression of collagen and aggrecan genes in normal and osteoarthritic murine knee joints. Osteoarthritis and cartilage/OARS, Osteoarthritis Research Society. 2002; 10(1):51-61) consistent with an internationally-recognized system. Briefly, grade 0: normal; grade 1: rough surface or superficial zone lesions; grade 2: lesion down to the intermediate zone; grade 3: lesions down to tidemark or loss of AC; grades 4 and 5: AC loss across between 20% and 50% or 50-80% of condylar surface; grade 6: loss with subchondral bone exposure. Multiple slides (˜10), each containing five 6 μm sections sampled at 120 μm intervals spanning each entire joint were graded. Grading in each joint compartment (lateral/medial, tibia/femur) allowed for a maximum (most severe) grade to be assigned in each section, and used to produce an overall ‘average’ maximum grade in each group of mice, for the entire joint and for each compartment. In addition, a mean score was produced for each joint and for each compartment and these similarly used to produce an overall ‘average’ mean grade in each group of mice. Mean grades provide a measure of the ‘extent’ of AC lesion (representing relative volume) in each joint/compartment.

[6] = 50 mg/kg intraperitoneally, 18 weeks, vs vehicle
[7] = 50 mg/kg intraperitoneally, 18 weeks

`COc1cc(/C=C/C(=O)/C=C/c2ccc(OC(=O)C[N+](C)(C)C)c(OC)c2)ccc1O.[Cl-]` [Hylin-betaine, 2-(4-((1E,4E)-5-(4-hydroxy-3-methoxyphenyl)-3-oxopenta-1,4-dien-1-yl)-2-methoxyphenoxy)-N,N,N-trimethyl-2-oxoethanaminium chloride] was tested, and the “metaphyseal trabecular bone architecture and mass (tibial length, BV/TV, TV, BV, eccentricity, thickness, separation, number)” value (Str/ort mice [1]; [6]) was “do not alter”, the “cortical cross-sectional area (CSA)” value (Str/ort mice [1]; apart from one distal region and a region close to tibio-fibula junction) was “do not significantly” and the “mean cortical cross-sectional thickness” value (Str/ort mice [1]; multiple regions from −15-60% tibial length, vs vehicle) was “significantly enhanced”. For the same molecule, the “second moment of area around minor axis (Imin)” value (Str/ort mice [1]; vs vehicle, one region proximally) was “does not affect”, the tibial ellipticity (Str/ort mice [1]; vs vehicle, region ˜40-50% along the tibia) was “modified by xantho-betaine but not hylin-betaine” and the “second moment of area around major axis (Imax)” value (Str/ort mice [1]; vs vehicle, ˜35-55% of tibial length) was “did not affect”. The “health status: weight, hunching, gait, activity, vocalisation and respiration scores, coat condition” value (Str/ort mice [2]) was “does not alter”, the “mice that refused to run (drop-out) during the gait studies” value (Str/ort mice [3]; [7]) was “no mice” and the “percentage of drop-out regarding the total number of runs” value (Str/ort mice [3]; [7]) was 0%. For the same molecule, the “distribution of gait data (runs) by treatment group” value (“distribution of gait data (runs)” for short) (Str/ort mice [3]; 2014 Dec. 23) was 7, the “distribution of gait data (runs)” value (Str/ort mice [3]; 2015 Apr. 14) was 7 and the “distribution of gait data (runs)” value (Str/ort mice [3]; 2015 Feb. 18) was 7. The “effect on all gait descriptors” value (Str/ort mice [3]; any time point, compared with vehicle group) was “no significant effect”, the “effect on cortical bone (overall)” value (Str/ort mice [4]) was “significantly alter” and the “effect on articular cartilage lesions / development of OA (overall)” value (Str/ort mice [5]; [6]) was “prevents/improves articular cartilage lesions; also recorded: protective effect”. The “Mean OA scores” value (Str/ort mice [5]; tibial and femoral lateral knee joint compartments, vs vehicle) was “statistically significantly lower” and the “maximum OA score” value (Str/ort mice [5]; vs vehicle treated Str/ort mice) was “trend for lower maximum score”.

— patent US20250017888A1, “COMPOUNDS FOR TREATING DISEASES ASSOCIATED WITH HYALURONAN OVERPRODUCTION” (THE ROYAL VETERINARY COLLEGE, priority 2021, published 2025)
